Reference: BindingDB's records for patent US12043645 (Memorial Sloan-Kettering Cancer Center, 2024)

Each molecule was assayed against Set1/Ash2 histone methyltransferase complex subunit ASH2 (Homo sapiens, UniProt Q9UBL3) (assay: Filter-paper Assay).
Sequence of Set1/Ash2 histone methyltransferase complex subunit ASH2 (Q9UBL3 whole entry, one chain of several): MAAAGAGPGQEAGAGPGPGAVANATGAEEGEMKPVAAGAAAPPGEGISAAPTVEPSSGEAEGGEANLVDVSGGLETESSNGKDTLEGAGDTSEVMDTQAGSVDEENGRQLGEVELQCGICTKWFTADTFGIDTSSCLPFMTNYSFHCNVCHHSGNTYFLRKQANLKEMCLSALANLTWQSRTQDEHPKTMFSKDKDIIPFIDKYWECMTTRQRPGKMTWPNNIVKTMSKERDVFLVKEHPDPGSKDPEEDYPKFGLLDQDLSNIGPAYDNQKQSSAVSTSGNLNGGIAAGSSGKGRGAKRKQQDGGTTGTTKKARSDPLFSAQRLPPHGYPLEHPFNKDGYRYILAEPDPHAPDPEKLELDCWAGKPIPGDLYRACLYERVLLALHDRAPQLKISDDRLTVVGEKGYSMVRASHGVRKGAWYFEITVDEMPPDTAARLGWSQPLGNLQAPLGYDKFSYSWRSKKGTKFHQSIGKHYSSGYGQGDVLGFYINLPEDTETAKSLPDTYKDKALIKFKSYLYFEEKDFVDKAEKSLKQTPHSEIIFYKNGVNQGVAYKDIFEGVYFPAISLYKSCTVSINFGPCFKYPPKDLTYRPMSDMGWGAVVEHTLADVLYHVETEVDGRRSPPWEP
Description: This assay relies on Whatman P-81 filter paper, which binds peptides but not SAM. Protein Methyl Transferases (PMTs) transfer 3H-Me of [3H-Me]-SAM to peptide substrates and the resultant 3H-methylated, filter-paper-bound peptide is quantified with a scintillation counter. Briefly, 6 μL of the methylation reaction was spotted onto Whatman P-81 phosphocellulose filter paper (1.2×1.2 cm2) to immobilize the 3H-labeled peptide. After drying in air for 20 min, the filter paper was immersed into 20 mL of 50 mM Na2CO3/NaHCO3 buffer (pH=9.2), and washed 5 times for 10 min each time. The washed filter paper was then transferred to a 20 mL scintillation vial containing 1 mL of distilled water and 10 mL of Ultima Gold scintillation cocktail or 7 mL scintillation vial containing 0.5 mL od distilled water and 5 mL of scintillation cocktail (PerkinElmer). The radioactivity was quantified by a Beckman LS6000IC liquid scintillation counter.
In the case of Nc1ncnc2c1ncn2C1OC(C[C@H](CC[C@H](N)C(=O)NCCc2cc(-c3ccccc3)[nH]n2)Nc2ccccc2)C(O)C1O (stereo partly drawn) [US12043645, Example 5], the IC50 is reported as 2200 nM. Work on COc1ccc(CCNC(=O)[C@@H](N)CC[C@@H](CC2OC(n3cnc4c(N)ncnc43)C(O)C2O)Nc2ccccc2)cc1 (stereo partly drawn) [US12043645, Example 1] yielded an IC50 of 390 nM. For CCCNC(=O)[C@@H](N)CC[C@@H](CC1OC(n2cnc3c(N)ncnc32)C(O)C1O)Nc1ccccc1 (stereo partly drawn) [US12043645, Example 7], the IC50 was 20 nM.
